Laboratory results from patent publication US20250228239A1, “MOLECULES HAVING PESTICIDAL UTILITY, AND INTERMEDIATES, COMPOSITIONS, AND PROCESSES, RELATED THERETO” (priority 2024, published 2025).

Key:
Assay type in all cases: in vivo
[1] = tested on: Beet Armyworm (Spodoptera exigua, LAPHEG); assay: Bioassays on Beet Armyworm (BAW), 128-well diet tray assay; settings: Spodoptera exigua; Beet Armyworm; rating class; read-out: BAW
How it was run: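 Eight diet wells per compound were treated at 50 μg/cm^2 (acetone-water 90:10), dried, then infested with 1–5 second-instar larvae each. After five to seven days at 25 °C under 14:10 photoperiod, mortality was scored and averaged across wells.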

[2] = tested on: Cabbage Looper (Trichoplusia ni, TRIPNI); assay: Bioassays on Cabbage Looper (CL), 128-well diet tray assay; settings: Trichoplusia ni; Cabbage Looper; rating class; read-out: CL
How it was run: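 Percent mortality, averaged across eight replicate wells, after second-instar larvae (1–5 per well) fed for five to seven days on diet dosed at 50 μg/cm^2. Compound was applied in acetone-water 90:10 and dried; trays kept vented at 25° C under 14:10 photoperiod.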

[3] = tested on: Yellow Fever Mosquito (Aedes aegypti, AEDSAE); settings: Yellow Fever Mosquito; rating class
How it was run: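 Mortality after 3 days at room temperature is the read-out, scored well by well and converted to a rating. Test molecules came from 4000 ppm stocks in DMSO, further diluted in 90:10 water/acetone, and were exposed to roughly 1-day-old larvae suspended in liver-powder water.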

Compound | pest or weed control at 50 µg/cm2 [1] | pest or weed control at 50 µg/cm2 [2] | YFM [3]
COCC(=O)N(C)c1c(F)ccc(NC(=O)c2cc(NC(=O)[C@H]3[C@H](c4ccc(Cl)c(Cl)c4)C3(Cl)Cl)ccc2Cl)c1F [F1630, 2-Chloro-5-((1R,3R)-2,2-dichloro-3-(3,4-dichlorophenyl)cyclopropane-1-carboxamido)-N-(2,4-difluoro-3-(2-methoxy-N-methylacetamido)phenyl)benzamide] | 50 to 100% | 50 to 100% | A (80–100)
CCOC(C)C(=O)Nc1c(F)ccc(NC(=O)c2cc(NC(=O)[C@H]3[C@H](c4cc(Cl)c(Cl)c(Cl)c4)C3(Cl)Cl)ccc2Cl)c1F (stereo partly drawn) [F1645, 2-Chloro-5-((1R,3R)-2,2-dichloro-3-(3,4,5-trichlorophenyl)cyclopropane-1-carboxamido)-N-(3-(2-ethoxypropanamido)-2,4-difluorophenyl)benzamide] | 50 to 100% | 50 to 100% | A (80–100)
COCC(=O)Nc1c(F)ccc(NC(=O)c2cc(NC(=O)[C@H]3[C@H](c4cc(Cl)c(Cl)c(Cl)c4)C3(Cl)Cl)ccc2Cl)c1F [F1646, 2-Chloro-5-((1R,3R)-2,2-dichloro-3-(3,4,5-trichlorophenyl)cyclopropane-1-carboxamido)-N-(2,4-difluoro-3-(2-methoxyacetamido)phenyl)benzamide] | 50 to 100% | 50 to 100% | A (80–100)
O=C(CC(F)(F)F)Nc1c(F)ccc(NC(=O)c2cc(NC(=O)[C@H]3[C@H](c4cc(Cl)c(Cl)c(Cl)c4)C3(Cl)Cl)ccc2Cl)c1F [F1651, 2-Chloro-5-((1R,3R)-2,2-dichloro-3-(3,4,5-trichlorophenyl)cyclopropane-1-carboxamido)-N-(2,4-difluoro-3-(3,3,3-trifluoropropanamido)phenyl)benzamide] | 50 to 100% | 50 to 100% | A (80–100)
O=C(CC1CC1)Nc1c(F)ccc(NC(=O)c2cc(NC(=O)[C@H]3[C@H](c4cc(Cl)c(Cl)c(Cl)c4)C3(Cl)Cl)ccc2Cl)c1F [F1653, 2-Chloro-N-(3-(2-cyclopropylacetamido)-2,4-difluorophenyl)-5-((1R,3R)-2,2-dichloro-3-(3,4,5-trichlorophenyl)cyclopropane-1-carboxamido)benzamide] | 50 to 100% | 50 to 100% | A (80–100)
CCC(=O)Nc1c(F)ccc(NC(=O)c2cc(NC(=O)[C@H]3[C@H](c4cc(Cl)c(Cl)c(Cl)c4)C3(Cl)Cl)ccc2Cl)c1F [F1654, 2-Chloro-5-((1R,3R)-2,2-dichloro-3-(3,4,5-trichlorophenyl)cyclopropane-1-carboxamido)-N-(2,4-difluoro-3-propionamidophenyl)benzamide] | 50 to 100% | 50 to 100% | A (80–100)
CCOC(C)C(=O)Nc1c(F)ccc(NC(=O)c2cc(NC(=O)[C@H]3[C@H](c4ccc(Cl)c(C(F)(F)F)c4)C3(Cl)Cl)ccc2Cl)c1F (stereo partly drawn) [F1660, 2-Chloro-5-((1R,3R)-2,2-dichloro-3-(4-chloro-3-(trifluoromethyl)phenyl)cyclopropane-1-carboxamido)-N-(3-(2-ethoxypropanamido)-2,4-difluorophenyl)benzamide] | 50 to 100% | 50 to 100% | A (80–100)
O=C(Nc1ccc(F)c(NC(=O)C2CCCO2)c1F)c1cc(NC(=O)[C@H]2[C@H](c3ccc(Cl)c(C(F)(F)F)c3)C2(Cl)Cl)ccc1Cl (stereo partly drawn) [F1661, N-(3-(2-Chloro-5-((1R,3R)-2,2-dichloro-3-(4-chloro-3-(trifluoromethyl)phenyl)cyclopropane-1-carboxamido)benzamido)-2,6-difluorophenyl)tetrahydrofuran-2-carboxamide] | 50 to 100% | 50 to 100% | A (80–100)
CCC(Cl)C(=O)Nc1c(F)ccc(NC(=O)c2cc(NC(=O)[C@H]3[C@H](c4ccc(F)c(C(F)(F)F)c4)C3(Cl)Cl)ccc2Cl)c1F (stereo partly drawn) [F1668, 2-Chloro-N-(3-(2-chlorobutanamido)-2,4-difluorophenyl)-5-((1R,3R)-2,2-dichloro-3-(4-fluoro-3-(trifluoromethyl)phenyl)cyclopropane-1-carboxamido)benzamide] | 50 to 100% | 50 to 100% | A (80–100)
CC(Cl)CC(=O)Nc1c(F)ccc(NC(=O)c2cc(NC(=O)[C@H]3[C@H](c4ccc(F)c(C(F)(F)F)c4)C3(Cl)Cl)ccc2Cl)c1F (stereo partly drawn) [F1669, 2-Chloro-N-(3-(3-chlorobutanamido)-2,4-difluorophenyl)-5-((1R,3R)-2,2-dichloro-3-(4-fluoro-3-(trifluoromethyl)phenyl)cyclopropane-1-carboxamido)benzamide] | 50 to 100% | 50 to 100% | A (80–100)
O=C(Nc1c(F)ccc(NC(=O)c2cc(NC(=O)[C@H]3[C@H](c4ccc(Cl)c(Cl)c4)C3(Cl)Cl)ccc2Cl)c1F)c1ccno1 [F1671, N-(3-(2-Chloro-5-((1R,3R)-2,2-dichloro-3-(3,4-dichlorophenyl)cyclopropane-1-carboxamido)benzamido)-2,6-difluorophenyl)isoxazole-5-carboxamide] | 50 to 100% | 50 to 100% | B (More than 0 – Less than 80)
O=C(Nc1ccc(F)c(NC(=O)C(F)F)c1F)c1cc(NC(=O)[C@H]2[C@H](c3cccc(C(F)(F)F)c3)C2(Cl)Cl)ccc1Cl [F1675, 2-Chloro-5-((1R,3R)-2,2-dichloro-3-(3-(trifluoromethyl)phenyl)cyclopropane-1-carboxamido)-N-(3-(2,2-difluoroacetamido)-2,4-difluorophenyl)benzamide] | 50 to 100% | 50 to 100% | A (80–100)
CCC(=O)Nc1c(F)ccc(NC(=O)c2cc(NC(=O)[C@H]3[C@H](c4cccc(C(F)(F)F)c4)C3(Cl)Cl)ccc2Cl)c1F [F1679, 2-Chloro-5-((1R,3R)-2,2-dichloro-3-(3-(trifluoromethyl)phenyl)cyclopropane-1-carboxamido)-N-(2,4-difluoro-3-propionamidophenyl)benzamide] | 50 to 100% | 50 to 100% | A (80–100)
Cc1c(F)c(NC(=O)c2cc(NC(=O)[C@H]3[C@H](c4ccc(F)c(C(F)(F)F)c4)C3(Cl)Cl)ccc2Cl)cc(NC(=O)C(F)F)c1F [F1680, 2-Chloro-5-((1R,3R)-2,2-dichloro-3-(4-fluoro-3-(trifluoromethyl)phenyl)cyclopropane-1-carboxamido)-N-(5-(2,2-difluoroacetamido)-2,4-difluoro-3-methylphenyl)benzamide] | 50 to 100% | 50 to 100% | B (More than 0 – Less than 80)
O=C(CC1CC1)Nc1c(F)ccc(NC(=O)c2cc(NC(=O)[C@H]3[C@H](c4ccc(F)c(C(F)(F)F)c4)C3(Cl)Cl)ccc2Cl)c1F [F1682, 2-Chloro-N-(3-(2-cyclopropylacetamido)-2,4-difluorophenyl)-5-((1R,3R)-2,2-dichloro-3-(4-fluoro-3-(trifluoromethyl)phenyl)cyclopropane-1-carboxamido)benzamide] | 50 to 100% | 50 to 100% | A (80–100)
